From US8334272B2, “Methods for nucleic acid transfer into cells” (Northwestern University, priority 2007, dated 2012)
Entries after “also recorded” stand apart in the source; their conditions may differ.

What was measured:
A549 cells = assay: Luciferase expression after electroporation of pCMV-Lux-DTS plasmid (transfection efficiency); assay type: cell-based, human; settings: for luciferase expression versus DMSO (vehicle) treated or wild type cells: A549, 3 hours after electroporation, 1 μM TSA, 3 mM 17b, 1 mM 17-AAG, 10 nM okadaic acid; for exogenous gene expression (luciferase) versus vehicle control: A549, 24 hours after electroporation and 25 hours after drug treatment; for exogenous gene expression as measured by luciferase expression over appropriate control (FIG. 4): A549 cell cultures
Description: Human adenocarcinoma A549 cells (ATCC, #CCL-185, Rockville, Md.) were grown in DMEM supplemented with 10% fetal bovine serum (FBS). A stable line of A549 cells expressing firefly luciferase was constructed by transfection of cells with plasmid pGL4.14[luc2/Hygro] (Promega, Madison, Wis.) and selection with hygromycin. Colonies were pooled and passaged under selection. HIF-1 and HIF-2 knockdowns were created in A549 cells using retroviral methods with the PT67 packaging cell line (Clontech, Mountain View, Calif.). PT67 cells were transfected with 10 to 15 μg of specific shRNA-expressing or empty plasmids using lipofectin (Invitrogen, Carlsbad, Calif.) according to the manufacturer's protocol. Virus-containing medium was supplemented with 8 μg/ml of polybrene (Sigma, St. Louis, Mo.) for infection. Stable HDAC6 knockdown or stable HDAC6 overexpressing A549 cells were a generous gift from T. P. Yao (Duke University). For electroporations, cells were grown to confluency in […] dishes, and rinsed twice in serum- and antibiotic-free media. Five micrograms of plasmids in 500 µl of serum and antibiotic-free DMEM were added to each well and one […] square wave electric pulse was applied using a PetriPulser electrode (BTX, San Diego, Calif.). […] Drugs were used at the following final concentrations: 1 μM TSA, 1 mM Sodium Butyrate, […], 3 mM 17B, 1 mM 17-AAG, and 10 nM Okadaic Acid. […] All luciferase measurements were normalized to total cell protein and reported as fold-increases in expression over DMSO (vehicle-treated). All experiments were performed in triplicate wells and the experiments were repeated at least three times. For statistical analyses, student's t-tests were used. Cells grown on etched coverslips were microinjected as previously described. At least 100 cells were injected for each condition and experiments were repeated three times.
Plasmid pCMV-lux-DTS expresses luciferase from the CMV immediate early promoter and contains the SV40 DNA nuclear targeting sequence downstream of the reporter gene. All plasmids were purified from E. coli using Qiagen Gigaprep kits as described by the manufacturer (Qiagen, Chatsworth, Calif.). Plasmid pDD306, expressing GFP from the CMV promoter and which contains the GeneGrip1 PNA binding site (Gene Therapy Systems, San Diego, Calif.) was labeled with Cy3-labeled PNA as described. Briefly, plasmids were labeled with Cy3-PNA in the manufacturer's labeling buffer at 37° C. for 2 hours followed by isopropanol precipitation to remove unbound Cy3-PNA. Plasmid labeling was verified by agarose gel electrophoresis and fluorescent detection in the absence of ethidium bromide.

[1] = tested on: cytoplasmic HDACs (HDAC6); settings: A549 cytoplasmic extracts
Description: HDAC6 Activity measurements. Cytoplasmic lysates were prepared as previously described to separate HDAC6 from nuclear HDAC activity (36). Cells were then probed for HDAC activity using a fluorescent HDAC activity kit (BioMol International LP, Plymouth Meeting, Pa.). At various times during the development of the assay, the reagents were quenched, allowing for a determination of the relative activity of the cytoplasmic HDACs.

acetylated tubulin = assay: Total and acetylated tubulin by immunofluorescence and Western blot; assay type: cell-based, human; design: level of microtubules (polymerized tubulin) / acetylated microtubules after treatment: dose or concentration left out as unconfirmed; settings: for microtubule (tubulin) acetylation: cell cultures, immunofluorescence, versus treatment controls
Description: Prior to collection, samples were washed once in PBS (37° C.), and stabilized in two 15 minute washes in microtubule stabilization buffer (0.1M PIPES, pH 6.75, 1 mM EGTA, 1 mM MgSO4, 2 M glycerol, protease inhibitors). Cells were then lysed in microtubule lysis buffer (25 mM Tris-HCl, pH 7.4, 0.4 M NaCl and 0.5% SDS). All extracted samples were mixed with SDS-PAGE sample buffer (112.5 mM Tris-HCl, pH 6.8, 10%-mercaptoethanol, 3.6% SDS, 1.8% glycerol, 0.001% bromophenol blue) such that equal amounts of total protein were loaded for each fraction. The samples were boiled for 3 min and separated by 12% SDS-PAGE gels according to the methods previously described by Lugtenberg. Proteins were transferred to nitrocellulose and probed using anti-acetylated (1:1000, Sigma) or anti-tubulin (1:1000, Sigma) in PBS with 5% fat-free powdered milk. Blots were developed with a chemiluminescence detection kit, and autoradiograms were digitized before densitometry using ImageJ (NIH, Bethesda, Md.). All samples were run in duplicate and were from at least three independent experiments. After all treatment regimes, cells were washed with PBS followed by a 10 minute incubation in fixation/permeabilization buffer (60 mM PIPES, 25 mM HEPES, 10 mM EGTA, 3 mM MgCl2, 0.2% Triton X-100, and 3.7% paraformaldehyde). Cells were then washed in PBS and blocked for 1 hour in PBS containing 1 mg/ml BSA. After blocking, the cells were incubated for 1 hour with the appropriate primary antibody in PBS with 0.1 mg/ml BSA, washed in PBS, and reacted for 30 minutes with Alexa 488 or 555 conjugated secondary antibody (1:200, Molecular Probes, Eugene, Oreg.) in PBS with 0.1% BSA. Following a second set of washes in PBS, the silastic membranes were excised from the culture plates, placed face up on a microscope slide, and covered with a coverslip. All images were acquired in OpenLab (Improvision, Lexington, Mass.) with a Hamamatsu Orca II-ER camera attached to Leica DRMX-2 upright fluorescent microscope using a 100× oil-immersion objective.

HDAC6 = target: T1, HDAC6 (Homo sapiens, UniProt Q9UBN7); settings: sodium butyrate 1 mM, Trichostatin A 1 μM where stated; cited from earlier work
T1 sequence (Q9UBN7 1-1215): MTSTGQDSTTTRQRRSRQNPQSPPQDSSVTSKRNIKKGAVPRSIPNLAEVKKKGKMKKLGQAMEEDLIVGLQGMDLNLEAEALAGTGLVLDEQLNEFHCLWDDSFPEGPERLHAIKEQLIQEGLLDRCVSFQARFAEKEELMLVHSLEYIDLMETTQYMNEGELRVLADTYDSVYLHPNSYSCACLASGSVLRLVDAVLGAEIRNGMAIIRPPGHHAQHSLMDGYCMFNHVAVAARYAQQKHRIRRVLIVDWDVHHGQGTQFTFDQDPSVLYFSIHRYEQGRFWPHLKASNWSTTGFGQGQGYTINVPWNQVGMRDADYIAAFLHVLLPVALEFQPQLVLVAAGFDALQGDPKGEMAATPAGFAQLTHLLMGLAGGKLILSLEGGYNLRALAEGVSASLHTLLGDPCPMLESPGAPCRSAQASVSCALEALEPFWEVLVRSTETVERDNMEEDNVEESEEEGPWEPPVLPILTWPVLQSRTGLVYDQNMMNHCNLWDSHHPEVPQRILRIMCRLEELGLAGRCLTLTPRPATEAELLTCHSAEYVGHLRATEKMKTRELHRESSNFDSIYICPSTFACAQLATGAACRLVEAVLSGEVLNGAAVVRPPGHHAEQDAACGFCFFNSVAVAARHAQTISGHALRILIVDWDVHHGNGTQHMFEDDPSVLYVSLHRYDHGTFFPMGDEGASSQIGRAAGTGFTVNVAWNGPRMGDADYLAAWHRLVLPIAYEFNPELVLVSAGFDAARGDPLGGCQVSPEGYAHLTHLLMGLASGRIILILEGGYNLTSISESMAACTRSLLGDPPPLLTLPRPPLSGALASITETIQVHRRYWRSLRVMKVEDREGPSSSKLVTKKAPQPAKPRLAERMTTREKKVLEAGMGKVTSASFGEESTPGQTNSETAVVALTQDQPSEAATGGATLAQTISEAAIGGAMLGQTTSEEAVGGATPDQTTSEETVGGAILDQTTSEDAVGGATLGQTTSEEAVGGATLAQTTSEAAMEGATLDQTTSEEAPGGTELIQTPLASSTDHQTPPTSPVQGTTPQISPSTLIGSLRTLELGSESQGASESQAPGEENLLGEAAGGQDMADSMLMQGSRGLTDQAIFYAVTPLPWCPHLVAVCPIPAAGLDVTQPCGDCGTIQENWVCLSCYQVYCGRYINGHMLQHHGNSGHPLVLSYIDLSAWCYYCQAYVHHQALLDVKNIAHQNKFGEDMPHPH

C=CCNC1=C2C[C@@H](C)C[C@H](OC)[C@H](O)[C@@H](C)/C=C(\C)[C@H](OC(N)=O)[C@@H](OC)/C=C\C=C(/C)C(=O)NC(=CC1=O)C2=O [17-AAG]
luciferase expression versus DMSO (vehicle) treated or wild type cells (A549 cells): no increase in expression; also recorded: dampened

CC(/C=C/C(=O)NO)=C\[C@@H](C)C(=O)c1ccc(N(C)C)cc1 [TSA, trichostatin A]
luciferase expression versus DMSO (vehicle) treated or wild type cells (A549 cells): slight but significant increase
exogenous gene expression (luciferase) versus vehicle control (A549 cells): significant increases
higher increase in expression than sodium butyrate (A549 cells; A549, 24 hours after electroporation, 25 hours after drug): ~10 fold
exogenous gene expression as measured by luciferase expression over appropriate control (FIG. 4) (A549 cells): increased
cytoplasmic HDAC activity in the assay [1]: quenched
microtubule (tubulin) acetylation (acetylated tubulin): significant microtubule acetylation
microtubule (tubulin) acetylation (acetylated tubulin; listed as trichostatin A): increased

O=C(CCCCCCC(=O)Nc1ccc([C@H]2O[C@@H](CSc3nc(-c4ccccc4)c(-c4ccccc4)o3)C[C@@H](c3ccc(CO)cc3)O2)cc1)NO [Tubacin, tubacin]
exogenous gene expression as measured by luciferase expression over appropriate control (FIG. 4) (A549 cells): increased
exogenous gene expression as measured by luciferase expression over appropriate control (FIG. 4) (A549 cells; listed as tubacin): greatly increased

COC(=O)Nc1nc2ccc(C(=O)c3cccs3)cc2[nH]1 [nocodazole]
acetylated microtubules after treatment (acetylated tubulin; A549, Nocodazole, 3 hours): still remained
level of microtubules (polymerized tubulin) (acetylated tubulin; A549, Nocodazole, 3 hours): greatly diminished

C=C1[C@@H](O)[C@@H]2O[C@]3(CC[C@H](/C=C/[C@@H](C)[C@@H]4CC(C)=C[C@@]5(O[C@H](C[C@@](C)(O)C(=O)O)CC[C@H]5O)O4)O3)CC[C@H]2O[C@@H]1[C@@H](O)C[C@H](C)[C@H]1O[C@@]2(CCCCO2)CC[C@H]1C [okadiac acid, Okadaic Acid]
luciferase expression versus DMSO (vehicle) treated or wild type cells (A549 cells): did not result the increase in expression

CCCC(=O)[O-].[Na+] [sodium butyrate]
HDAC inhibition selectivity (HDAC6): does not inhibit HDAC6; also recorded: inhibits all HDACs except for HDAC6
exogenous gene expression (luciferase) versus vehicle control (A549 cells): significant increases
microtubule (tubulin) acetylation (acetylated tubulin): not and not observed
